Reference: patent US10072017B2, “Compounds and methods for the treatment of cystic fibrosis” (Flatley Discovery Lab, LLC, priority 2015, dated 2018)

Target: T1, CFTR (Homo sapiens, UniProt P13569, DEL508-508)
T1 construct: Primary CF airway epithelial cells were obtained from the UNC Cystic Fibrosis Tissue Procurement and Cell Culture Core; host or cells: primary CF airway epithelial cells
Assay: Equivalent current assay in Primary CF airway epithelial cells (NAUC)
Format: cell-based
Settings: 24 h, normalized to VX809 (3 μM) positive control; for Nauc @ 3 μM: 3 μM test compound; for Nauc @ 10 μM: 10 μM test compound
Method in brief: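 NAUC is the area under the curve from forskolin (10 μM) plus VX770 (1 μM) addition to CFTR-172 (20 μM) block, after benzamil (5 μM). It is corrected for vehicle and scaled to 3 μM VX809 as 1.0 and DMSO as 0.0. Cells were exposed for 24 h to compounds with VX809; medians of ≥4 replicates were fitted sigmoidally.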

T1 sequence (P13569 with tags, fused parts or gaps DEL508-508): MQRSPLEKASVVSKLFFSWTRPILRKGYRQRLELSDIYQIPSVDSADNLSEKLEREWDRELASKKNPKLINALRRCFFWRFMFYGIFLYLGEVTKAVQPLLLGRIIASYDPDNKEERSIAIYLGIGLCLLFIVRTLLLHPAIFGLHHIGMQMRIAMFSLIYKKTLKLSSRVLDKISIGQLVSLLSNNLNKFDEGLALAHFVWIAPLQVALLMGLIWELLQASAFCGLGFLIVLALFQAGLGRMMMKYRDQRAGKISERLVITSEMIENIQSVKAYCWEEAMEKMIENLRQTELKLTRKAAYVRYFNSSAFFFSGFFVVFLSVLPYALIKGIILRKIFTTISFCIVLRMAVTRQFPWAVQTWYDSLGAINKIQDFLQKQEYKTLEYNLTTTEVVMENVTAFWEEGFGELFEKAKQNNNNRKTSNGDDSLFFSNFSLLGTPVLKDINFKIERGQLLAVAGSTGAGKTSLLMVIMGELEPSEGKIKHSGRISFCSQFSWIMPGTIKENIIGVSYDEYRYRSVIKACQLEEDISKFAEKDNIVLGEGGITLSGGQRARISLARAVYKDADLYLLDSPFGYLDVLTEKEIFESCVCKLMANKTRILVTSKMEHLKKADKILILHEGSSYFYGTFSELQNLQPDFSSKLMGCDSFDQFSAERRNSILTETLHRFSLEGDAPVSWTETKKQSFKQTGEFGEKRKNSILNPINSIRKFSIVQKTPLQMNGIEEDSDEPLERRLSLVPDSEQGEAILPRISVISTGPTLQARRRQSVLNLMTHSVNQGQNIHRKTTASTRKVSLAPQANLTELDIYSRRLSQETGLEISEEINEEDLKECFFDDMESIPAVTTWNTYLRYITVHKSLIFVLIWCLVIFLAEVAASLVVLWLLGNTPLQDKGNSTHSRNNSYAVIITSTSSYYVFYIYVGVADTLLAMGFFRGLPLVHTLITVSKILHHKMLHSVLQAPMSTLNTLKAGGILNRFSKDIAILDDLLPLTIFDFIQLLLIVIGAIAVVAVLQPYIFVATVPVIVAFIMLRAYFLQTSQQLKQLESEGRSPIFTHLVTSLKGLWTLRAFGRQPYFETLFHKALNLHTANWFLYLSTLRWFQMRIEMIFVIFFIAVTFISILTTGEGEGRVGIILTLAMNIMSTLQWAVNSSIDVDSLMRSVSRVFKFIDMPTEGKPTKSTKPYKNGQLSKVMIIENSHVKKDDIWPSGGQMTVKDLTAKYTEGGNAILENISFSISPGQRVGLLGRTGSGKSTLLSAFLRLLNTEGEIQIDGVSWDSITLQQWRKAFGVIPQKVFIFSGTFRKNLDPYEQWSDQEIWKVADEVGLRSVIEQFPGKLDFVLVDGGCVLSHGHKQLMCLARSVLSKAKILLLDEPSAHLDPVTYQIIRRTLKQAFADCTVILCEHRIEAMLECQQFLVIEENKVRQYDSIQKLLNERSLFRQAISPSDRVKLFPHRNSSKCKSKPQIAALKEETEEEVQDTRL

## C[C@@]1(F)CC2C3C(=O)N(c4cc(Cl)cc(Cl)c4)C(=O)C3C3(C(=O)Nc4c(Cl)cc(Cl)cc43)N2C1 (single isomer, unassigned) [Example 161]
  Nauc @ 3 μM: +++ (NAUC “+++” refers to an observed NAUC >170% of positive control)
  Nauc @ 10 μM: +++ (NAUC “+++” refers to an observed NAUC >170% of positive control)

## COc1ccc(CC2NC3(C(=O)Nc4c(Cl)cc(Cl)cc43)C3C(=O)N(c4cc(Cl)cc(Cl)c4)C(=O)C23)cc1 (centres unmarked) [Example 198]
  Nauc @ 3 μM: + (NAUC “+” refers to an observed NAUC <140% of positive control)
  Nauc @ 10 μM: ++ (NAUC “++” refers to an observed NAUC 170-140% of positive control)

## C[C@]1(OCc2ccccc2)CC2C3C(=O)N(c4cc(Cl)cc(Cl)c4)C(=O)C3C3(C(=O)Nc4c(Cl)cc(Cl)cc43)N2C1 (single isomer, unassigned) [Example 240]
  Nauc @ 3 μM: +++ (NAUC “+++” refers to an observed NAUC >170% of positive control)
  Nauc @ 10 μM: + (NAUC “+” refers to an observed NAUC <140% of positive control)

## O=C1C2C3CCCN3C3(C(=O)Nc4c(Cl)cc(Cl)cc43)C2C(=O)N1c1cncc(Cl)c1 (centres unmarked) [Example 20]
  Nauc @ 3 μM: + (NAUC “+” refers to an observed NAUC <140% of positive control)
  Nauc @ 10 μM: ++ (NAUC “++” refers to an observed NAUC 170-140% of positive control)

## Cc1nc(CC2NC3(C(=O)Nc4c(Cl)cc(Cl)cc43)C3C(=O)N(c4cc(Cl)cc(Cl)c4)C(=O)C23)cs1 (centres unmarked) [Example 248]
  Nauc @ 3 μM: + (NAUC “+” refers to an observed NAUC <140% of positive control)
  Nauc @ 10 μM: ++ (NAUC “++” refers to an observed NAUC 170-140% of positive control)

## O=C1C2C3CC4(CC4)CN3C3(C(=O)Nc4c(Cl)cc(Cl)cc43)C2C(=O)N1c1cc(Cl)cc(Cl)c1 (single isomer, unassigned) [Example 192]
  Nauc @ 3 μM: + (NAUC “+” refers to an observed NAUC <140% of positive control)
  Nauc @ 10 μM: ++ (NAUC “++” refers to an observed NAUC 170-140% of positive control)

## N#Cc1cccc(N2C(=O)C3C4CCCN4C4(C(=O)Nc5c(Cl)cc(Cl)cc54)C3C2=O)c1 (centres unmarked) [Example 14]
  Nauc @ 3 μM: + (NAUC “+” refers to an observed NAUC <140% of positive control)
  Nauc @ 10 μM: ++ (NAUC “++” refers to an observed NAUC 170-140% of positive control)

## Nc1ccc(CC2NC3(C(=O)Nc4c(Cl)cc(Cl)cc43)C3C(=O)N(c4cc(Cl)cc(Cl)c4)C(=O)C23)cc1 (centres unmarked) [Example 207]
  Nauc @ 3 μM: ++ (NAUC “++” refers to an observed NAUC 170-140% of positive control)
  Nauc @ 10 μM: + (NAUC “+” refers to an observed NAUC <140% of positive control)

## O=C1C2C3CC(C(F)F)CN3C3(C(=O)Nc4c(Cl)cc(Cl)cc43)C2C(=O)N1c1cc(Cl)cc(Cl)c1 (centres unmarked) [Example 137]
  Nauc @ 3 μM: +++ (NAUC “+++” refers to an observed NAUC >170% of positive control)
  Nauc @ 10 μM: +++ (NAUC “+++” refers to an observed NAUC >170% of positive control)

## COc1c(Cl)cc(N2C(=O)C3C4C[C@](C)(O)CN4C4(C(=O)Nc5c(Cl)cc(Cl)cc54)C3C2=O)cc1Cl (some centres unmarked) [Example 159]
  Nauc @ 3 μM: +++ (NAUC “+++” refers to an observed NAUC >170% of positive control)
  Nauc @ 10 μM: +++ (NAUC “+++” refers to an observed NAUC >170% of positive control)

## CCC(C)C1NC2(C(=O)Nc3c(Cl)cc(Cl)cc32)C2C(=O)N(c3cc(Cl)cc(OC)c3)C(=O)C12 (centres unmarked) [Example 7, 3′-(Sec-butyl)-5,7-dichloro-5′-(3-chloro-5-methoxyphenyl)-2′,3′,3a′,6a′-tetrahydro-4′H-spiro[indoline-3,1′-pyrrolo[3,4-c]pyrrole]-2,4′,6′(5′H)-trione]
  Nauc @ 3 μM: ++ (NAUC “++” refers to an observed NAUC 170-140% of positive control)
  Nauc @ 10 μM: ++ (NAUC “++” refers to an observed NAUC 170-140% of positive control)

## COc1cccc(CC2NC3(C(=O)Nc4c(Cl)cc(Cl)cc43)C3C(=O)N(c4cc(Cl)cc(Cl)c4)C(=O)C23)c1 (centres unmarked) [Example 200]
  Nauc @ 3 μM: ++ (NAUC “++” refers to an observed NAUC 170-140% of positive control)
  Nauc @ 10 μM: + (NAUC “+” refers to an observed NAUC <140% of positive control)

## O=C1C2C3CCCN3C3(C(=O)Nc4c(Cl)cc(Cl)cc43)C2C(=O)N1CCCBr (centres unmarked) [Example 48]
  Nauc @ 3 μM: ++ (NAUC “++” refers to an observed NAUC 170-140% of positive control)
  Nauc @ 10 μM: + (NAUC “+” refers to an observed NAUC <140% of positive control)

## O=C1C2C3C[C@H](Cl)CN3C3(C(=O)Nc4c(Cl)cc(Cl)cc43)C2C(=O)N1c1cc(Cl)c(O)c(Cl)c1 (some centres unmarked) [Example 83]
  Nauc @ 3 μM: ++ (NAUC “++” refers to an observed NAUC 170-140% of positive control)
  Nauc @ 10 μM: +++ (NAUC “+++” refers to an observed NAUC >170% of positive control)

## NC(=O)c1cccc(N2C(=O)C3C4CCCN4C4(C(=O)Nc5c(Cl)cc(Cl)cc54)C3C2=O)c1 (centres unmarked) [Example 19]
  Nauc @ 3 μM: + (NAUC “+” refers to an observed NAUC <140% of positive control)
  Nauc @ 10 μM: ++ (NAUC “++” refers to an observed NAUC 170-140% of positive control)

## CC1(C)CC2C3C(=O)N(c4cc(Cl)c(OC(F)F)c(Cl)c4)C(=O)C3C3(C(=O)Nc4c(Cl)cc(Cl)cc43)N2C1 (centres unmarked) [Example 225]
  Nauc @ 3 μM: +++ (NAUC “+++” refers to an observed NAUC >170% of positive control)
  Nauc @ 10 μM: +++ (NAUC “+++” refers to an observed NAUC >170% of positive control)

## O=C1C2C3CC4(CC4)CN3C3(C(=O)Nc4c(Cl)cc(Cl)cc43)C2C(=O)N1c1cc(Cl)cc(Cl)c1 (centres unmarked) [Example 174]
  Nauc @ 3 μM: +++ (NAUC “+++” refers to an observed NAUC >170% of positive control)
  Nauc @ 10 μM: +++ (NAUC “+++” refers to an observed NAUC >170% of positive control)

## O=C1C2C(Cc3c(F)cccc3Cl)NC3(C(=O)Nc4c(Cl)cc(Cl)cc43)C2C(=O)N1c1cc(Cl)cc(Cl)c1 (centres unmarked) [Example 217]
  Nauc @ 3 μM: ++ (NAUC “++” refers to an observed NAUC 170-140% of positive control)
  Nauc @ 10 μM: ++ (NAUC “++” refers to an observed NAUC 170-140% of positive control)

## C[C@]1(O)CC2C3C(=O)N(c4cc(Cl)cc(Cl)c4)C(=O)C3C3(C(=O)Nc4c(Cl)cc(Cl)cc43)N2C1 (some centres unmarked) [Example 171]
  Nauc @ 3 μM: +++ (NAUC “+++” refers to an observed NAUC >170% of positive control)
  Nauc @ 10 μM: +++ (NAUC “+++” refers to an observed NAUC >170% of positive control)

## O=C1C2C3CCCN3C3(C(=O)Nc4c(Cl)cc(Cl)cc43)C2C(=O)N1c1cc(Cl)cc(Cl)n1 (centres unmarked) [Example 52]
  Nauc @ 3 μM: ++ (NAUC “++” refers to an observed NAUC 170-140% of positive control)
  Nauc @ 10 μM: +++ (NAUC “+++” refers to an observed NAUC >170% of positive control)

## COc1cc(Cl)cc(N2C(=O)C3C4CC(=C(F)F)CN4C4(C(=O)Nc5c(Cl)cc(Cl)cc54)C3C2=O)c1 (single isomer, unassigned) [Example 138]
  Nauc @ 3 μM: +++ (NAUC “+++” refers to an observed NAUC >170% of positive control)
  Nauc @ 10 μM: + (NAUC “+” refers to an observed NAUC <140% of positive control)

## CC(C)C1NC2(C(=O)Nc3c(Cl)cc(Cl)cc32)C2C(=O)N(c3cc(Cl)cc(Cl)c3)C(=O)C12 (centres unmarked) [Example 235]
  Nauc @ 3 μM: +++ (NAUC “+++” refers to an observed NAUC >170% of positive control)
  Nauc @ 10 μM: +++ (NAUC “+++” refers to an observed NAUC >170% of positive control)
